{"source": "patent US9539309B2", "about": "“Controlled release of growth factors and signaling molecules for promoting angiogenesis” (President and Fellows of Harvard College, priority 2008, dated 2017)", "key": {"[1]": {"system": "Endothelial cells isolated from diabetics", "experiment": "in vitro sprouting model with endothelial cells isolated from diabetics", "type": "cell-based", "excerpt": "In addition, there is an optimal VEGF concentration to induce most sprouts.\nEndothelial cells isolated from diabetics produce more sprouts in the presence of a combination of both gamma-secretase inhibitors with VEGF. (FIG. 2, *P<0.05) than with either of them alone, which implies the need of a combination of both growth factor and DAPT."}, "[2]": {"system": "cells in small intestines", "experiment": "in vivo effect of DAPT on the cells in small intestines (H&E, alcian blue, Ki67, HES-1 staining)", "set-up": "species or system mice", "excerpt": "FIG. 6 is a series of photomicrographs showing the effect of DAPT on gastrointestinal tissue. In vivo model was used to test the effect of DAPT delivered from alginate gel system and from intraperitoneal injection on the cells in small intestines. gel: alginate gel. ip: intraperitoneal injection. H&E, alcian blue, Ki67 and HES-1 are the four different staining methods to characterize the crypt cells in small intestines. Ki-67 was used to stain the proliferative cells. Loss of Notch signaling can alter the proliferation rate of crypt cells. HES-1 staining was to examine the expression of a known Notch target gene in crypts. Alcian blue staining was to examine the deposition of glycosaminoglycan molecules. Loss of Notch signaling can result in more deposition of glycosaminoglycan molecules. Expression of HES-1 (hairy and enhancer of split 1), a member of basic helix-loop-helix family of transcription factors and a known Notch target gene in crypts was examined. Loss of Notch signaling can alter the proliferation rate of crypt cells, as shown by Ki-67 staining the proliferative cells. In addition, Notch inhibition has been reported to alter the balance between proliferative crypt cells and goblet cells, resulting in more deposition of glycosaminoglycan molecules, as characterized by alcian blue staining."}, "[3]": {"settings": "DAPT delivered via intraperitoneal injection"}}}
{"compound": "VEGF", "values": [{"measurement": "concentration of VEGF that gives the most sprouts if used alone", "setting": "[1]; VEGF alone, FIG. 3", "value": 50, "unit": "ng/mL"}, {"measurement": "response to VEGF, capability of forming sprouts", "setting": "[1]; endothelial cells from diabetics compared to age-matched non-diabetics, FIG. 1, P<0.05", "value": "reduced response"}]}
{"compound": "C[C@H](NC(=O)Cc1cc(F)cc(F)c1)C(=O)N[C@H](C(=O)OC(C)(C)C)c1ccccc1", "note": "[DAPT, N—[N-(3,5-Difluorophenacetyl-L-alanyl)]-S-phenylglycine t-butyl ester]", "values": [{"measurement": "cell differentiation at distant sites (small intestines)", "setting": "[2]; DAPT delivered from alginate gel system, compared with intraperitoneal injection, FIG. 6", "value": "does not alter cell differentiation at distant sites as much"}, {"measurement": "region of effects", "setting": "[2]; DAPT delivered from the gel system", "value": "only has effects in the local region"}, {"measurement": "Notch target gene expression, HES-1 staining", "setting": "[2]; [3]", "value": "downregulation of Notch target gene expression"}, {"measurement": "glycosaminoglycans, alcian blue staining", "setting": "[2]; [3]", "value": "presence of extra glycosaminoglycans"}, {"measurement": "intestinal structure, H&E staining", "setting": "[2]; [3]", "value": "disrupts normal intestinal structure"}, {"measurement": "proliferating cells, Ki67 staining", "setting": "[2]; [3]", "value": "loss of proliferating cells"}, {"measurement": "effects at distant organs (e.g., small intestines)", "setting": "[2]; DAPT delivered via intraperitoneal injection, goes into the systemic circulation", "value": "led to adverse effects at distant organs"}]}
